Results as given in US12435010B1, “4-iodopyrazole coordination compound and preparation method and use thereof” (Institute of Applied Ecology, Chinese Academy of Sciences, priority 2024, dated 2025).

Columns and labels:
nitrobacteria = assay: nitrification inhibition activity in air-dry soil with urea; settings: for Nitrification inhibition rate dN / Mass fraction of nitrate nitrogen in the sample solution ω1: 10.00 g air-dry soil, 0.10 g urea, 48 h; for Mass fraction of nitrate nitrogen in the sample solution ω1: control ω2=948.6
Experimental: 2. A method for determining nitrification inhibition activity is as follows. […] 4-iodopyrazole coordination compound prepared in Embodiment 1 were respectively weighed, and placed into 500 ml conical flasks respectively; 10.00 g of air-dry soil, 0.10 g of urea and 100 mL of phosphate buffer were added to each flask; the conical flasks were simultaneously place into a thermostatic culture oscillator (180 rpm) for oscillation for 48 h, and then the resulting solutions were filtered to determine mass fraction ω1 of nitrate nitrogen (including nitrite nitrogen) in the sample and the control sample solution respectively. Calculation of nitrification inhibition rate: the nitrification inhibition rate of binuclear ligands with different addition amounts was calculated, and the results are shown in Table 2. [formula] • where dN is nitrification inhibition rate (%); • ω1 is mass fraction of nitrate nitrogen (including nitrite nitrogen) in the sample; and • ω2 is mass fraction of nitrate nitrogen (including nitrite nitrogen) in the control sample, and ω2=948.6.

urease = urease (Canavalia ensiformis, UniProt P07374); settings: read-out: IC50 of urease inhibition; urease 10 KU/L, preincubated 1 h at 37° C., phosphate buffer pH 6.8 with 500 mM urea; modified Karber method
urease, sequence (P07374 whole entry, looked up): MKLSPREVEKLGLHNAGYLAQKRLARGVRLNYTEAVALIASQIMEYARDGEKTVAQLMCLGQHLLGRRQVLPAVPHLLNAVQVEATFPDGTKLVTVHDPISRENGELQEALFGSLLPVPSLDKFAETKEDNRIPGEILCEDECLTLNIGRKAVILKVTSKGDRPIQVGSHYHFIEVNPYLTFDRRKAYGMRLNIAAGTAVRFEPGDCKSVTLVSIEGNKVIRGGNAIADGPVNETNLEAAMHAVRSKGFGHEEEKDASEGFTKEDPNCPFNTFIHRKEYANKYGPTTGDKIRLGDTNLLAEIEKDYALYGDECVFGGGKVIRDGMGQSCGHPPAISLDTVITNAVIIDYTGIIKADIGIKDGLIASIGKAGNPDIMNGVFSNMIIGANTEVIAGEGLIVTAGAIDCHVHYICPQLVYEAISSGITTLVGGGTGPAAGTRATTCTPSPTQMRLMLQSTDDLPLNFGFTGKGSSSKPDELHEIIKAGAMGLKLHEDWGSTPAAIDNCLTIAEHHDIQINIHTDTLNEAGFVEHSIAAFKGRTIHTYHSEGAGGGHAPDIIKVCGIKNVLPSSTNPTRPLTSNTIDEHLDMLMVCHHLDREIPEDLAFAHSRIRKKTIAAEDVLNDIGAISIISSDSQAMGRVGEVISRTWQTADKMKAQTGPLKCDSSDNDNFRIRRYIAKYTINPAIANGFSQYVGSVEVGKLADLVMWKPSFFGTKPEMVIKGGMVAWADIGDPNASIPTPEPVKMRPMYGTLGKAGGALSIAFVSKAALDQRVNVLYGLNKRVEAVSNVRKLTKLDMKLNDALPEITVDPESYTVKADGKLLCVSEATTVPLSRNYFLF
Experimental: An endpoint of the testing was determined by the phenol red indicator, and the testing was stopped when the solution changed from pale yellow to red.

For Ic1cn[nH]c1.Ic1cn[nH]c1.[Cl][Cu][Cl] [copper chloride-linked 4-iodopyrazole coordination compound], the nitrification inhibition rates (nitrobacteria; all addition amounts of Table 2) was “greater than 9%”, the “Nitrification inhibition rate dN” value (nitrobacteria; mass of compound 0.03 g) was 9.16% and the “Mass fraction of nitrate nitrogen in the sample solution ω1” value (“Mass fraction of nitrate nitrogen” below) (nitrobacteria; mass of compound 0.03 g) was 861.7. For the same compound, the “Nitrification inhibition rate dN” value (nitrobacteria; mass of compound 0.05 g) was 9.79%, the “Mass fraction of nitrate nitrogen” value (nitrobacteria; mass of compound 0.05 g) was 855.8 and the “Nitrification inhibition rate dN” value (nitrobacteria; mass of compound 0.07 g) was 11.09%. For the same compound, the “Mass fraction of nitrate nitrogen” value (nitrobacteria; mass of compound 0.07 g) was 843.4, the “Nitrification inhibition rate dN” value (nitrobacteria; mass of compound 0.10 g) was 15.57% and the “Mass fraction of nitrate nitrogen” value (nitrobacteria; mass of compound 0.10 g) was 800.9. The IC50 (urease) was 2580 ± 40 nM.
